Measured values from US6737383B1, “Herbicidal oxadiazolidines” (priority 1999, dated 2004).

Experiments:
[1] = test system: Green foxtail; test: Test D green foxtail; format: in vivo; details: Rate 250 g/ha; Postemergence; 0 to 100 scale
[2] = test system: maize hybrid P33G26; test: Test G maize injury with safener-treated seed; details: for Mean plant response rating, maize: 28 days after application
Procedure, shortened: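 Maize hybrid P33G26 seed, treated with dichlormid, fenchlorazole-ethyl or naphthalic anhydride or left untreated, was sown in soil pots, then sprayed pre-emergence with several compound rates at 310 L/ha. Plants grew in a greenhouse (14 h day, about 27/24 °C day/night), with 4–5 replicates. Injury was scored visually against untreated controls 28 days after application.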

[3] = test system: Chenopodium album (CHEAL); test: Test F preemergence, alone and in mixture with rimsulfuron, CHEAL; format: in vivo; details: 21 days after treatment, 0-100 scale
Protocol: (§1) Abutilon theophrasti (ABUTH), Chenopodium album (CHEAL), Amaranthus rudis (AMATA), Setaria faberii (SETFA), Panicum dichotomiflorum (PANDI), and Digitaria sanguinalis (DIGSA) were grown from seed in pots of an artificial potting mixture in a greenhouse. Compounds of the present invention were applied at 70 and 105 g ai/ha preemergence. Rimsulfuron was applied at 8.8 and 17.5 g ai/ha. Mixtures of the compounds of the present invention and rimsulfuron were also applied.
(§2) Following application, the plants were maintained by watering as needed. A fertilizer solution of Peter's 20-20-20 (10 pounds/5 gallons of water) plus Sprint 330, a Iron Chelate micronutrient, (113.5 grams/5 gallons of water) was injected into the water with an Anderson fertilizer injection system to provide approximately 219 ppm of nitrogen with each watering. Artificial lighting was used to supplement natural light to produce a 14 hour photoperiod and: an additional one hour light period was used between 1:00 am to 2:00 am for a night interruption. Greenhouse temperatures were targeted for 27° C. in the day and 21° C. at night. At 21 days after treatment, all plants were evaluated for injury as compared to control plants that were sprayed only with non-phytotoxic solvent.
(§3) Colby's equation was used to calculate the expected additive herbicidal effect of the mixtures of Compound 21 and the mixture partners listed above. […]

[4] = test system: goosegrass; test: Test D goosegrass; format: in vivo, Eleusine indica; details: Postemergence, 0 to 100 scale
[5] = test system: pitted morningglory; test: Test D pitted morningglory; format: in vivo, Ipomoea lacunosa; details: Postemergence, 0 to 100 scale
[6] = test system: Digitaria sanguinalis (DIGSA); test: Test F preemergence, alone and in mixture with rimsulfuron, DIGSA; format: in vivo; details: 21 days after treatment, 0-100 scale
Protocol: as §1, §2, §3

[7] = test system: guineagrass; test: Test D guineagrass; format: in vivo, Panicum maximum; details: Postemergence, 0 to 100 scale
[8] = test system: Amaranthus rudis (AMATA); test: Test F preemergence, alone and in mixture with rimsulfuron, AMATA; format: in vivo; details: 21 days after treatment, 0-100 scale
Protocol: as §1, §2, §3

[9] = test system: Green foxtail; test: Test D green foxtail; format: in vivo; details: Postemergence, 0 to 100 scale, 0 no injury, 100 complete control
[10] = test system: dallisgrass; test: Test D dallisgrass; format: in vivo, Paspalum dilatatum; details: Postemergence, 0 to 100 scale
[11] = test system: certain weeds; test: Test F overall statement on synergism with rimsulfuron (Colby's equation); format: in vivo; details: combinations with rimsulfuron, preemergence
Protocol: as §2, with “Abutilon theophrasti (ABUTH), Chenopodium album (CHEAL), Amaranthus rudis (AMATA), Setaria […]), Panicum dichotomiflorum (PANDI), and Digitaria sanguinalis (DIGSA) were grown from seed in pots of an artificial potting mixture in a greenhouse. Compounds of the present invention were applied at 70 and 105 g ai/ha preemergence. Rimsulfuron was applied at 8.8 and 17.5 g ai/ha. Mixtures of the compounds of the present invention and rimsulfuron were also applied. Following” for “Following”, “solvent. […] Colby's equation was used to calculate the expected additive herbicidal effect of the mixtures of Compound 21 and the mixture partners listed above. […]” for “solvent.”

[12] = test system: Green foxtail; test: Test D green foxtail; format: in vivo; details: Postemergence, 0 to 100 scale, 0 no injury, 100 complete control; remark: listed apart in the source
[13] = test system: common pursiane; test: Test D common purslane; format: in vivo, Portulaca oleracea; details: Postemergence, 0 to 100 scale
[14] = Alone: Cmpd. rate 70, Rimsulfuron 0
[15] = Alone: Cmpd. rate 105, Rimsulfuron 0
[16] = Rate 16 g/ha, 0 no injury, 100 complete control
[17] = Rate 32 g/ha, 0 no injury, 100 complete control
[18] = Rate 64 g/ha, 0 no injury, 100 complete control
[19] = Rate 125 g/ha, 0 no injury, 100 complete control

In the case of CC(C)N(C(=O)n1oc(=O)n(C(C)C)c1=O)c1ccc(F)cc1 [Compound 131], the “Plant response rating, Green foxtail” value [1] is reported as 100, the “Mean plant response rating, maize” value ([2]; Safener Dichlormid (seed treatment), Rate 70 g ai/ha) is reported as 3 percent control and the “Mean plant response rating, maize” value ([2]; Safener Dichlormid (seed treatment), Rate 140 g ai/ha) is reported as 3 percent control. The “Mean plant response rating, maize” value ([2]; Safener Dichlormid (seed treatment), Rate 280 g ai/ha) was 3 percent control, the “Mean plant response rating, maize” value ([2]; Safener Dichlormid (seed treatment), Rate 560 g ai/ha) was 40 percent control and the “Mean plant response rating, maize” value ([2]; Safener Fenchlorazole-ethyl (seed treatment), Rate 70 g ai/ha) was 85 percent control. The “Mean plant response rating, maize” value ([2]; Safener Fenchlorazole-ethyl (seed treatment), Rate 140 g ai/ha) was 91 percent control, the “Mean plant response rating, maize” value ([2]; Safener Fenchlorazole-ethyl (seed treatment), Rate 280 g ai/ha) was 92 percent control and the “Mean plant response rating, maize” value ([2]; Safener Fenchlorazole-ethyl (seed treatment), Rate 560 g ai/ha) was 96 percent control. The “Mean plant response rating, maize” value ([2]; Safener None, Rate 70 g ai/ha) was 80 percent control, the “Mean plant response rating, maize” value ([2]; Safener None, Rate 140 g ai/ha) was 88 percent control and the “Mean plant response rating, maize” value ([2]; Safener None, Rate 280 g ai/ha) was 91 percent control. The “Mean plant response rating, maize” value ([2]; Safener None, Rate 560 g ai/ha) was 95 percent control, the “Mean plant response rating, maize” value ([2]; Safener naphthalic anhydride (seed treatment), Rate 140 g ai/ha) was 0 percent control and the Injury to maize ([2]; absence of any safener, rates ranging from 70 to 560 g/ha) was “severely injurious to maize”. For the same compound, the “CHEAL Observed” value [3, 14] was 60%, the “CHEAL Observed” value [3, 15] was 95% and the “Plant response rating, Goosegrass” value [4, 16] was 90. The “Plant response rating, Goosegrass” value [4, 17] was 100, the “Plant response rating, Goosegrass” value [4, 18] was 100 and the “Plant response rating, Goosegrass” value [4, 19] was 100. The “Plant response rating, Goosegrass” value ([4]; Rate 250 g/ha) was 100, the “Plant response rating, P. morninglory” value [5, 16] was 0 and the “Plant response rating, P. morninglory” value [5, 17] was 0. The “Plant response rating, P. morninglory” value [5, 18] was 0, the “Plant response rating, P. morninglory” value [5, 19] was 0 and the “Plant response rating, P. morninglory” value ([5]; Rate 250 g/ha) was 100. The “DIGSA Observed” value [6, 14] was 100%, the “DIGSA Observed” value [6, 15] was 100% and the “Plant response rating, Guineagrass” value [7, 16] was 0. The “Plant response rating, Guineagrass” value [7, 17] was 20, the “Plant response rating, Guineagrass” value [7, 18] was 100 and the “Plant response rating, Guineagrass” value [7, 19] was 100. The “Plant response rating, Guineagrass” value ([7]; Rate 250 g/ha) was 100, the “AMATA Observed” value [8, 14] was 50% and the “AMATA Observed” value [8, 15] was 40%. The “Plant response rating, Green foxtail” value ([9]; Rate 16 g/ha) was 0, the “Plant response rating, Green foxtail” value ([9]; Rate 32 g/ha) was 60 and the “Plant response rating, Dallisgrass” value [10, 16] was 20. The “Plant response rating, Dallisgrass” value [10, 17] was 60, the “Plant response rating, Dallisgrass” value [10, 18] was 100 and the “Plant response rating, Dallisgrass” value [10, 19] was 100. The “Plant response rating, Dallisgrass” value ([10]; Rate 250 g/ha) was 100, the “Weed control of combination with rimsulfuron compared with expectation from Colby's equation” value [11] was “better control of certain weeds than expected” and the “Plant response rating, Green foxtail” value ([12]; Rate 64 g/ha) was 100. The “Plant response rating, Green foxtail” value ([12]; Rate 125 g/ha) was 100, the “Plant response rating, C. purslane” value [13, 16] was 0 and the “Plant response rating, C. purslane” value [13, 17] was 0. The “Plant response rating, C. purslane” value [13, 18] was 0, the “Plant response rating, C. purslane” value [13, 19] was 0 and the “Plant response rating, C. purslane” value ([13]; Rate 250 g/ha) was 0.
